A short description of the series: RP, Waters ACQUITY UPLC BEH C18, 100 × 2.1 mm, 1.7 µm, 0.3 mL/min, estimated dead time 0.73 min; A: water + 0.1% formic acid, pH 3; B: methanol + 0.1% formic acid, pH 3; gradient (min/%B) 0/10 14/90 16/90 18/10. Particulars: stereoisomer not certain.
Turning to `CCCC1CC(C(=O)NC(C(C)Cl)C2OC(SC)C(O)C(O)C2O)N(C)C1` (stereo not drawn) [Clindamycin], the LC retention time was 7.04 min. Turning to `COc1c(N2CC3CCCNC3C2)c(F)cc2c(=O)c(C(=O)O)cn(C3CC3)c12` (stereo not drawn) [Moxifloxacin], the LC retention time is 5.23 min. For `COC(=O)Nc1cccc(OC(=O)Nc2cccc(C)c2)c1` [Phenmedipham], the LC retention time is 9.52 min.

Take `CNC(=O)Oc1cccc2c1OC(C)(C)C2` [Carbofuran]: the LC retention time is 8.15 min.

Regarding `CCN(CC)c1nc(C)cc(OP(=S)(OC)OC)n1` [Pirimiphos-methyl], the LC retention time was 12.4 min. Consider `COCCc1ccc(OCC(O)CNC(C)C)cc1` (stereo not drawn) [Metoprolol], for which the LC retention time was 5.31 min. The same measure for `Clc1ccccc1CN1CCc2sccc2C1` [Ticlopidine]: 12.1 min; for `CCOC(=O)CCN(Cc1ccccc1)SN(C)C(=O)ON=C(C)SC` [Alanycarb]: 11.6 min.

As to `COP(=S)(OC)Oc1ccc([N+](=O)[O-])cc1` [Parathion-methyl], the LC retention time was 9.6 min. Take `CC(C)(C)C(O)C(Oc1ccc(Cl)cc1)n1cncn1` (stereo not drawn) [Triadimenol]: the LC retention time was 11.3 min. Next, `CC(C)(C)NCC(O)c1ccccc1Cl` (stereo not drawn) [Tulobuterol]: 5.6 min. As to `Cc1ncc([N+](=O)[O-])n1C` [Dimetridazole], the LC retention time is 2.68 min. In the case of `CCCCCc1cc(O)c2c(c1)OC(C)(C)C1CC=C(C(=O)O)CC21` (stereo not drawn) [THC-COOH], the LC retention time was 13.9 min. As to `CCCN(CC)CC1COC2(CCC(C(C)(C)C)CC2)O1` (stereo not drawn) [Spiroxamine], the LC retention time was 10 min. As for `CCOP(=S)(OCC)Oc1cc(C)nc(C(C)C)n1` [Diazinon], the LC retention time was 12.5 min.

Consider `CC(=O)Nc1ccc(S(=O)(=O)Nc2ccc([N+](=O)[O-])cc2)cc1` [Sulfanitran], for which the LC retention time was 7.27 min. Consider `N#Cc1c[nH]cc1-c1cccc(Cl)c1Cl` [Fenpiclonil], for which the LC retention time is 9.52 min. In the case of `COC(=O)C(C)N(C(=O)c1ccco1)c1c(C)cccc1C` (stereo not drawn) [Furalaxyl], the LC retention time is 10 min. Regarding `O=[N+]([O-])/N=C1\NCCN1Cc1ccc(Cl)nc1` [Imidacloprid], the LC retention time was 4.63 min. In the case of `CCOP(=O)(NC(C)C)Oc1ccc(SC)c(C)c1` (stereo not drawn) [Fenamiphos], the LC retention time is 11.3 min. The same measure for `O=C(C1CCCCC1)N1CC(=O)N2CCc3ccccc3C2C1` (stereo not drawn) [Praziquantel]: 10.1 min; for `CNC(=O)Oc1cccc2ccccc12` [Carbaryl]: 7.91 min. As to `CCOP(=S)(OCC)Oc1ccc2c(C)c(Cl)c(=O)oc2c1` [Coumaphos], the LC retention time was 12.4 min. `CNc1nc(NC(C)C)nc(SC)n1` [Desmetryn]: the LC retention time is 8.78 min.

As to `CC(C)c1ccc(NC(=O)N(C)C)cc1` [Isoproturon], the LC retention time was 9.6 min.

For the compound `COC1C(OC(C)=O)CC(=O)OC(C)CC=CC=CC(O)C(C)CC(CC=O)C1OC1OC(C)C(OC2CC(C)(O)C(OC(=O)CC(C)C)C(C)O2)C(N(C)C)C1O` (stereo not drawn) [Josamycin], the LC retention time is 11.4 min.

For the compound `CS(=O)(=O)c1ccc(C(O)C(CO)NC(=O)C(Cl)Cl)cc1` (stereo not drawn) [Thiamphenicol], the LC retention time is 3.6 min.

In the case of `CC(C)N1C(=O)c2ccccc2NS1(=O)=O` [Bentazon], the LC retention time was 3.68 min. The same measure for `Cc1nc(N(C)C)nc(OC(=O)N(C)C)c1C` [Pirimicarb]: 5.67 min; for `CC(C)NCC(O)COc1cccc2[nH]c3ccccc3c12` (stereo not drawn) [Carazolol]: 6.24 min; for `CNC(=O)Oc1cccc2c1OC(C)(C)O2` [Bendiocarb]: 7.43 min. Take `CCN(CC)C(=O)N1CCN(C)CC1` [Diethylcarbamazine]: the LC retention time is 2.52 min.

In the case of `COc1cc2c(c3oc(=O)c4c(c13)CCC4=O)C1(O)C=COC1O2` (stereo not drawn) [Aflatoxin M1], the LC retention time is 7.15 min.

Consider `CSc1nc(N)nc(NC(C)(C)C)n1` [Deethylterbutryn], for which the LC retention time is 9.3 min. Consider `O=C(Nc1ccc(F)cc1F)c1cccnc1Oc1cccc(C(F)(F)F)c1` [Diflufenican], for which the LC retention time was 12.7 min. On to `OC(c1ccc(F)cc1)(c1cncnc1)c1ccccc1Cl` (stereo not drawn) [Nuarimol (Trimidal)], for which the LC retention time is 10 min. Next, `CCCN(CCC)c1c([N+](=O)[O-])cc(S(N)(=O)=O)cc1[N+](=O)[O-]` [Oryzalin]: 11.1 min; `CCC(c1ccc(O)cc1)C(CC)c1ccc(O)cc1` (stereo not drawn) [Hexestrol]: 11.3 min. Next, `FC(F)C(F)(F)OCC(Cn1cncn1)c1ccc(Cl)cc1Cl` (stereo not drawn) [Tetraconazole]: 11.6 min.

For the compound `CCNc1nc(Cl)nc(NC(C)(C)C#N)n1` [Cyanazine], the LC retention time is 7.05 min. For the compound `Cc1[nH]c(=O)n(C(C)(C)C)c(=O)c1Cl` [Terbacil], the LC retention time was 7.42 min. Next, `Cc1cccc2sc3nncn3c12` [Tricyclazole]: 6.05 min; `CCC(C(=O)O)C1OC(C(C)C(O)C(C)C(=O)C(CC)C2OC3(C=CC(O)C4(CCC(C)(C5CCC(O)(CC)C(C)O5)O4)O3)C(C)CC2C)C(C)CC1C` (stereo not drawn) [Narasin]: 16.5 min; `COc1cc(OC)nc(NC(=O)NS(=O)(=O)c2ncccc2C(=O)N(C)C)n1` [Nicosulfuron]: 5.39 min. Consider `COc1ccc(C(O)(c2cncnc2)C2CC2)cc1` (stereo not drawn) [Ancymidol], for which the LC retention time was 7.72 min. As for `CNC(=O)N(C)c1nnc(C(C)(C)C)s1` [Tebuthiuron], the LC retention time was 7.79 min. Take `CCC1CCCC(OC2CCC(N(C)C)C(C)O2)C(C)C(=O)C2=CC3C(C=CC4CC(OC5OC(C)C(OC)C(OC)C5OC)CC43)C2CC(=O)O1` (stereo not drawn) [Spinosyn A]: the LC retention time was 12 min. Next, `CNC(=O)Oc1cc(C)c(S(C)=O)c(C)c1` (stereo not drawn) [Methiocarb sulfoxide]: 4.6 min; `CC1(C)C(C(=O)OC(C#N)c2cccc(Oc3ccccc3)c2)C1(C)C` (stereo not drawn) [Fenpropathrin]: 13.7 min; `O=C(NC(=O)c1ccccc1Cl)Nc1ccc(OC(F)(F)F)cc1` [Triflumuron]: 12 min. As to `CC(C)Oc1cccc(NC(=O)c2ccccc2C(F)(F)F)c1` [Flutolanil], the LC retention time is 10.5 min.

As for `NC(=O)NN=Cc1ccc([N+](=O)[O-])o1` [Nitrofurazone], the LC retention time is 2.99 min. With `CCOP(=S)(OCC)Oc1ccc(Cl)cc1Cl` [Dichlofenthion], the LC retention time was 13.4 min.

For the compound `CC(=O)OCC12CC(OC(=O)CC(C)C)C(C)=CC1OC1C(O)C(O)C2(C)C12CO2` (stereo not drawn) [HT-2 Toxin], the LC retention time was 7.95 min. The same measure for `Cc1nnc(NS(=O)(=O)c2ccc(N)cc2)s1` [Sulfamethiazole]: 3.19 min; for `CCOP(=S)(OCC)SCS(=O)(=O)CC` [Phorate sulfone]: 8.76 min; for `O=c1c2cc(F)ccc2nc(-n2cncn2)n1-c1ccc(Cl)cc1Cl` [Fluquinconazole]: 10.7 min. For `CCn1cc(C(=O)O)c(=O)c2ccc(C)nc21` [Nalidixic acid], the LC retention time was 7.99 min.

`CCC(=O)C(CC(C)N(C)C)(c1ccccc1)c1ccccc1` (stereo not drawn) [Methadone]: the LC retention time was 10.4 min. In the case of `CCCCCC(C)OC(=O)COc1ccc(Cl)c2cccnc12` (stereo not drawn) [Cloquintocet - mexyl], the LC retention time was 13 min.

`COc1cc(OC)n2nc(S(=O)(=O)Nc3c(Cl)ccc(C)c3Cl)nc2n1` [Metosulam]: the LC retention time was 7.54 min.

For `CC(=O)OCC12CC(OC(=O)CC(C)C)C(C)=CC1OC1C(O)C(OC(C)=O)C2(C)C12CO2` (stereo not drawn) [T2 Toxin], the LC retention time was 9.98 min.

On to `CCOP(=S)(OCC)Oc1ccc([N+](=O)[O-])cc1` [Parathion], for which the LC retention time is 11.3 min. Next, `CC12CCC(=O)C=C1CCC1C2C(=O)CC2(C)C1CCC2(O)C(=O)CO` (stereo not drawn) [Cortisone]: 8.13 min; `COC(=O)C1C2CC3c4[nH]c5cc(OC)ccc5c4CCN3CC2CC(OC(=O)c2cc(OC)c(OC)c(OC)c2)C1OC` (stereo not drawn) [Reserpine]: 8.76 min; `CCCCCCCCC=CC1CCC(=O)O1` (stereo not drawn) [japonilure]: 9.82 min.

Consider `CCCCC1C(=O)N(c2ccccc2)N(c2ccc(O)cc2)C1=O` (stereo not drawn) [Oxyphenylbutazone], for which the LC retention time was 9.97 min.

Regarding `COP(=O)(OC)OC1=C(Cl)C2C=CCC12` (stereo not drawn) [Heptenophos], the LC retention time was 9.33 min. The same measure for `O=C(NC(=O)c1c(F)cccc1F)Nc1ccc(Oc2ccc(C(F)(F)F)cc2Cl)cc1F` [Flufenoxuron]: 13.5 min; for `CCCCC(C)C(OC(=O)CC(CC(=O)O)C(=O)O)C(CC(C)CCCCCCC(O)CC(O)C(C)N)OC(=O)CC(CC(=O)O)C(=O)O` (stereo not drawn) [Fumonisin B2]: 11 min. For the compound `CC1=CC2OC3C(O)CC(C)(C34CO4)C2(CO)C(O)C1=O` (stereo not drawn) [Deoxynivalenol], the LC retention time was 2.83 min.

On to `CCc1cccc(C)c1N(C(=O)CCl)C(C)COC` (stereo not drawn) [Metolachlor], for which the LC retention time was 11.7 min. Take `CCOC(=O)CC(SP(=S)(OC)OC)C(=O)OCC` (stereo not drawn) [Malathion]: the LC retention time was 11.6 min.

Regarding `CC(Cc1ccc(C(C)(C)C)cc1)CN1CCCCC1` (stereo not drawn) [Fenpropidin], the LC retention time was 10 min. Next, `CC12CCC(=O)C=C1CCC1C2C(O)CC2(C)C(C(=O)CO)CCC12` (stereo not drawn) [Corticosterone]: 9.37 min; `CNC(=O)ON=C(SC)C(=O)N(C)C` [Oxamyl]: 2.84 min; `CCSC(=O)N(CC)C1CCCCC1` [Cycloate]: 12.3 min.

For the compound `CCCC(=NOCC)C1=C(O)CC(C2CCCSC2)CC1=O` (stereo not drawn) [Cycloxydime], the LC retention time was 11.3 min.

(Values after the RepoRT retention time repository (doi:10.1016/j.scitotenv.2015.08.078).)
